The record followed here is patent US5156962A, “Process for producing carboxylic acid esters using carboxyesterase and an anhydride in organic solvent” (Takeda Chemical Industries, Ltd., priority 1986, dated 1992).

Data set [1] in a line: Solubility of the crystals in solvents. It is filed as physicochemical.
For data set [2], the system named is PEG-modified esterase (carboxyl esterase). The data set is described as follows: Acetylation of lankacidin C to lankacidin A by PEG-modified esterase with different acetyl group donors (Lineweaver-Burk analysis). The format is biochemical, Streptomyces rochei var. volubilis. The settings on record: acetyl group donor as substrate, 11 mM lankacidin C in methyl isobutyl ketone, 37° C., least-squares method from Table 2; for Vmax: lankacidin A formed. As to the method:
2 ml of a solution of 11 mM concentrations of lankacidin C and 50 mM concentrations of acetic anhydride in methyl isobutyl ketone was put in a 20 ml test tube with stopper, to which was added 0.3 ml of a solution of PEG-modified esterase in 0.2M tris(hydroxymethyl) aminomethane-maleic acid buffer (pH 7.0), the concentration of PEG-modified esterase of which was 12 mg per ml, followed by shaking with shaking apparatus (80 spm) at 37° C.
By high-performance liquid chromatography (hereinafter referred to briefly as HPLC method) as described below, the amount of lankacidin A formed was measured at the time shown in Table 1.
By changing the concentration of acetyl group donor to those shown of Table 2, with the reaction time being 20 min., the same procedure as in Example 1 was conducted.
By using Lineweaver-Burk's equation of the formula 2 [Biochemical Dictionary, first edition, page 1314 (1984), Tokyokagakudozin Ltd.] derived by modifying the Michaelis-Menten equation of formula 1 [Op Cit. page 1239], the reaction using acetic anhydride as an acetyl group donor was compared with that using ethyl acetate as acetyl group donor. [formula]
By putting values of the concentration of acetyl group donor shown in Table 2 in the place of [S]o, and values of the amount of lankacidin A formed shown in Table 2 in the place of .nu., values of Km and Vmax were calculated by means of the least-squares method.

Consider `CCC(=O)OC1C=CC2OC2CC(C)OC(=O)CC(OC(=O)CC)C(OC)C(OC2OC(C)C(OC3CC(C)(O)C(OC(=O)CC)C(C)O3)C(N(C)C)C2O)C(CC=O)CC1C` (centres unmarked) [9-propionyl maridomycin III], for which the Solubility in acetone result in data set [1] (acetone) is reported as “readily soluble”. Besides, in data set [1] (chloroform), the Solubility in chloroform result is reported as “relatively soluble”. In addition, the Solubility in ethanol result in data set [1] (ethanol) was “readily soluble”. Moreover, the Solubility in methanol entry in data set [1] (methanol) is “readily soluble”. Further, the Solubility in water entry in data set [1] (water) is reported as “hardly soluble”.
Broadly, the Km is the concentration of substrate that gives half-maximal velocity. On to `CC(=O)OC(C)=O` [Acetic anhydride, acetic anhydride], for which the Michaelis constant (Km) in data set [2] (reaction time 20 min.) amounted to 7.69 mM. The Vmax in data set [2] stood at 6.59 mM/20 min.
Regarding `CCOC(C)=O` [Ethyl acetate, ethyl acetate], in data set [2], the Vmax is on record as 5.40 mM/20 min.
